According to ChEMBL document CHEMBL3739359, “New substituted 9-propyladenine derivatives as A2Aadenosine receptor antagonists” (Medchemcomm, 2015):

Assays:
Adenosine receptor A1 [1] = target: T1, Adenosine receptor A1 (Homo sapiens, UniProt P30542); test: Displacement of [3H]CCPA from human adenosine A1 receptor expressed in CHO cells; assay type: cell-based
T1 sequence (P30542 whole entry): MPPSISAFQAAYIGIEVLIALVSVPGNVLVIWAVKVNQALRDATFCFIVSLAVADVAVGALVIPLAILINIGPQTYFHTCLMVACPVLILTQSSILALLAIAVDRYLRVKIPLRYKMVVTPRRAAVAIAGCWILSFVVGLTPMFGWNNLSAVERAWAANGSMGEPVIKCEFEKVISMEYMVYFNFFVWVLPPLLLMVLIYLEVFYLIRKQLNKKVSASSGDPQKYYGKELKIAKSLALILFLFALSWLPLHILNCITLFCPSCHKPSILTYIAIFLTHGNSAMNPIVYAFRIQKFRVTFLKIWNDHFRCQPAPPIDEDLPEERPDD

Adenosine receptor A2a [2] = target: T2, Adenosine receptor A2a (Homo sapiens, UniProt P29274); test: Displacement of [3H]NECA from human adenosine A2A receptor expressed in CHO cells; assay type: cell-based
Adenosine receptor A2b [3] = target: T3, Adenosine receptor A2b (Homo sapiens, UniProt P29275); test: Antagonist activity at human adenosine A2B receptor expressed in CHO cells assessed as inhibition of NECA-stimulated adenylyl cyclase activity; assay type: functional, cell-based
T3 sequence (P29275 whole entry): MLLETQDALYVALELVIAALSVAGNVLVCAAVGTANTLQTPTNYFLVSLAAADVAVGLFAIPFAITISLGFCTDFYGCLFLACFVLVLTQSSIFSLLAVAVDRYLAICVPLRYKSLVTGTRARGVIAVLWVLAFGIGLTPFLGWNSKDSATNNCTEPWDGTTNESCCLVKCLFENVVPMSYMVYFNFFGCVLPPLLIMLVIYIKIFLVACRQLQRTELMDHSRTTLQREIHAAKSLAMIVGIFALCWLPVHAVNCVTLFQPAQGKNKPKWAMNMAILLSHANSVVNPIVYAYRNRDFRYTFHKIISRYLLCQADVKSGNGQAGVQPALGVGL

Adenosine receptor A3 [4] = target: T4, Adenosine receptor A3 (Homo sapiens, UniProt P0DMS8); test: Displacement of [3H]HEMADO from human adenosine A3 receptor expressed in CHO cells; assay type: cell-based
Adenosine receptor A1 [5] = target: T1, Adenosine receptor A1; test: Binding affinity to adenosine A1 receptor (unknown origin)
Adenosine receptor A2a [6] = target: T2, Adenosine receptor A2a; test: Binding affinity to adenosine A2A receptor (unknown origin)
Adenosine receptor A2b [7] = target: T3, Adenosine receptor A2b; test: Binding affinity to adenosine A2B receptor (unknown origin)
Adenosine receptor A3 [8] = target: T4, Adenosine receptor A3; test: Binding affinity to adenosine A3 receptor (unknown origin)
Homo sapiens = species on record: Homo sapiens; test: Selectivity ratio of Ki for adenosine A1 receptor (unknown origin) to Ki for adenosine A2A receptor (unknown origin)

T4 sequence (P0DMS8 whole entry, looked up): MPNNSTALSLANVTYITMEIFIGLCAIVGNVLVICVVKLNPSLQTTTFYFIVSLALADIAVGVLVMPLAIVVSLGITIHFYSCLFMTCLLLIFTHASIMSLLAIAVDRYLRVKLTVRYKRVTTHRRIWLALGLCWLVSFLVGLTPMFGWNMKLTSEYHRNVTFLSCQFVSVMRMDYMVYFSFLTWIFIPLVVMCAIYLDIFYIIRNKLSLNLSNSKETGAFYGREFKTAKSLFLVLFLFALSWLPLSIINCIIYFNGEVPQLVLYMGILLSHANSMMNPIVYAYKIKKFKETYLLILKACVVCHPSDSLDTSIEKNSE
T2 sequence (P29274 whole entry): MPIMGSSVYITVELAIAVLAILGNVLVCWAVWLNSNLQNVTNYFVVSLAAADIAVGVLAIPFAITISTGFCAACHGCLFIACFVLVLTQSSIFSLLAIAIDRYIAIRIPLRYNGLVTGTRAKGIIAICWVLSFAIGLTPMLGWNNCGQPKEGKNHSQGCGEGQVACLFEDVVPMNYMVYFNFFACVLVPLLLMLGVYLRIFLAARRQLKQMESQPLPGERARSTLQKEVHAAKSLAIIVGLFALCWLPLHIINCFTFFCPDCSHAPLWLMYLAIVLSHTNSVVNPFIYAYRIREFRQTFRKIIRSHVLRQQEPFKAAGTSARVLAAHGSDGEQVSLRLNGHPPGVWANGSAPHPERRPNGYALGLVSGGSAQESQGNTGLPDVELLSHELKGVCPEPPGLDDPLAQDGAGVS

Row | SMILES | Ki (Adenosine receptor A1 [1]) | Ki (Adenosine receptor A2a [2]) | Ki (Adenosine receptor A2b [3]) | Ki (Adenosine receptor A3 [4]) | Ki (Adenosine receptor A1 [5]) | Ki (Adenosine receptor A2a [6]) | Ki (Adenosine receptor A2b [7]) | Ki (Adenosine receptor A3 [8]) | Ratio Ki (Homo sapiens)
1 | CCCn1cnc2c(N)nc(NCCCc3ccccc3)nc21 | 3.64 µM | 9.11 µM | > 30 µM | 12.6 µM | – | – | – | – | –
2 | CCCn1c(-c2ccco2)nc2c(NCCCc3ccccc3)ncnc21 | 0.378 µM | 0.181 µM | 1.87 µM | 0.959 µM | – | – | – | – | –
3 | CCCn1c(Br)nc2c(NCc3ccccc3)ncnc21 | 5.62 µM | 1.18 µM | 7.49 µM | 11.1 µM | – | – | – | – | –
4 | CCCn1c(Br)nc2c(N)nc(NCc3ccccc3)nc21 | 0.358 µM | 0.036 µM | 1.74 µM | 0.65 µM | – | – | – | – | –
5 | CCCn1c(-c2ccco2)nc2c(N)nc(NCCCc3ccccc3)nc21 | 0.23 µM | 0.113 µM | 8.24 µM | 0.266 µM | – | – | – | – | –
6 | CCn1cnc2c(NCCc3ccccc3)ncnc21 | – | – | – | – | 8.73 µM | 1.34 µM | 8.13 µM | 10.8 µM | –
7 | CCCn1c(-c2ccco2)nc2c(N)nc(NCCc3ccccc3)nc21 | 0.08 µM | 0.014 µM | 2.03 µM | 0.056 µM | – | – | – | – | –
8 | CCCn1c(-c2ccco2)nc2c(NCCc3ccccc3)ncnc21 | 2.44 µM | 0.547 µM | 9.28 µM | 0.811 µM | – | – | – | – | –
9 | CCCn1cnc2c(N)ncnc21 | – | – | – | > 100 µM | – | – | – | – | –
10 | CCn1cnc2c(N)nc(NCCc3ccccc3)nc21 | – | – | – | – | 0.33 µM | 0.15 µM | 2.41 µM | 3.2 µM | –
11 | CCCn1cnc2c(NCCc3ccccc3)ncnc21 | 19.2 µM | 12 µM | > 30 µM | 16.9 µM | – | – | – | – | –
12 | CCCn1c(Br)nc2c(NCCCc3ccccc3)ncnc21 | 2.67 µM | 1.02 µM | 1.76 µM | 12.2 µM | – | – | – | – | –
13 | CCCn1c(Br)nc2c(N)nc(NCCc3ccccc3)nc21 | 0.373 µM | 0.027 µM | 1.49 µM | 1.16 µM | – | – | – | – | –
14 | CCCn1c(Br)nc2c(N)ncnc21 | – | – | – | > 100 µM | – | – | – | – | –
15 | CCCn1cnc2c(NCCCc3ccccc3)ncnc21 | 18.6 µM | 13 µM | > 30 µM | 30 µM | – | – | – | – | –
16 | CCCn1cnc2c(N)nc(NCc3ccccc3)nc21 | 7.6 µM | 1.4 µM | > 30 µM | 5.84 µM | – | – | – | – | –
17 | CCCn1c(-c2ccco2)nc2c(N)nc(NCc3ccccc3)nc21 | 0.138 µM | 0.0066 µM | 4.61 µM | 0.029 µM | – | – | – | – | –
18 | CCCn1c(Br)nc2c(NCCc3ccccc3)ncnc21 | 1.94 µM | 0.503 µM | 3.19 µM | 2.52 µM | – | – | – | – | –
19 | CCn1c(-c2ccco2)nc2c(N)ncnc21 | – | – | – | – | – | – | – | – | 6
20 | CCCn1cnc2c(NCc3ccccc3)ncnc21 | 42.8 µM | 22.6 µM | > 30 µM | 29.1 µM | – | – | – | – | –
21 | CCCn1cnc2c(N)nc(NCCc3ccccc3)nc21 | 2.33 µM | 0.738 µM | 9.25 µM | 5.88 µM | – | – | – | – | –
22 | CCCn1c(Br)nc2c(N)nc(NCCCc3ccccc3)nc21 | 0.583 µM | 0.284 µM | 6.3 µM | 1.95 µM | – | – | – | – | –
23 | CCCn1c(-c2ccco2)nc2c(NCc3ccccc3)ncnc21 | 0.546 µM | 0.08 µM | 1.76 µM | 0.402 µM | – | – | – | – | –
